Measurements published in patent US10085955B2, “Methods and compositions for treatment of demyelinating diseases” (Pathologica LLC, priority 2013, dated 2018).
“Also recorded” adds a separate entry of the source.

How the values were obtained:
[1] = system: MOG-induced experimental autoimmune encephalomyelitis (EAE); assay: Second MOG EAE protocol, clinical readouts; format: in vivo, C57BL/6 mice; settings: second study; MGBG 30 mpk BID, fingolimod 1 mpk QD
Source text: An experimental murine model of multiple sclerosis employing a myelin oligodendrocyte glycoprotein (MOG) peptide to induce experimental autoimmune encephalomyelitis (EAE) was employed to determine the efficacy of MGBG in preventing and treating that disease. Because of its many similarities to MS, EAE is commonly used to study pathogenesis of autoimmunity, CNS inflammation, demyelination, cell trafficking, and tolerance induction. EAE is characterized by paralysis (in some models the paralysis is remitting-relapsing), CNS inflammation and demyelination. EAE is mediated primarily by dendritic cells, myelin-specific T cells (e.g. Th1 and Th17), and M1 macrophages. B cells may also play a role in some models of EAE. Body weight also tracks disease progression. EAE is induced in C57BL/6 mice by immunization with MOG35-55 or MOG1-125 in CFA emulsion followed by administration of pertussis toxin (PTX) in PBS. The emulsion provides antigen which initiates expansion and differentiation of MOG-specific autoimmune T cells. PTX enhances EAE development by providing additional adjuvant and facilitating entrance of autoimmune T cells into the CNS. […]
Clinically, EAE progression is scored on a scale of 0 to 5, wherein each score represents the following clinical observations: […]

[2] = in vivo; parameters: species or system Sprague Dawley rats; settings: rat
Procedure: Eighteen male Sprague Dawley rats (Charles River) weighing 217-263 g and aged 8-9 weeks were administered the test article, MGBG as either a single bolus intravenous dose of 1 mg/kg (Group 1) or as a single oral gavage dose of 10 mg/kg. A cohort of three animals was sacrificed via CO2 inhalation anesthesia after final blood collection at each of T=2, 4, 12, 24, 36, and 48 hours post-dose. Dose formulation analysis verified administered dose solutions as within 17% of targeted concentration of 10 mg/kg.
Analysis was performed by LC/MS/MS. Pharmacokinetic analyses were performed on the mean MGBG plasma concentration versus time data using the non-compartmental approach (linear trapezoidal rule for AUC calculations). The WinNonlin sparse sampling tool was used for PK calculations. All samples reported as BLQ (Below the Limit of Quantitation, in plasma 2.50 ng/mL) were changed to 0.00 ng/mL for the purpose of analysis.
Additionally, in rats dosed as above with single oral administration of MGBG at 10 mg/kg, immediately following the plasma sample collection for each cohort (i.e., 2, 4, 12, 24, 36, and 48 hours after dosing), three rats were sacrificed, and spleen and liver tissues collected and flask frozen. […] This is consistent with a selective uptake mechanism for MGBG. Without wishing to be bound by theory, other SAMDC inhibitors which are selectively uptaken by cells may, like MGBG, be useful in the methods and compositions disclosed herein.

[3] = Rhesus macaque single-dose pharmacokinetics; format: in vivo, rhesus monkeys; settings: plasma, mean
Procedure: Two groups of three male rhesus monkeys were fasted overnight before being administered the test article, MGBG, as either a single bolus intravenous dose of 1 mg/kg (Group 1) or as a single oral gavage dose of 10 mg/kg (Group 2). Dose formulation analysis verified administered dose solutions as within 14% of targeted concentrations of 1 and 10 mg/kg for Groups 1 and 2, respectively.
Blood samples were collected into tubes containing lithium heparin from the femoral vein/artery (approximately 1.0 mL) for plasma MGBG concentration measurement from all intravenously dosed animals prior to dosing and at approximately T=0.083 (5 min), 0.25 (15 min), 0.5 (30 min), 1, 2, 4, 8, and 24 hours after dosing. Blood samples for plasma MGBG concentration measurement were collected from all orally dosed animals prior to dosing at approximately T=1, 2, 4, 8, 12, 24, and 36 hours after dosing. Food was also withheld through the first four hours of blood sample collection.
The samples were centrifuged under refrigerated conditions following completion of sample collection at each interval. The resulting plasma was separated and stored frozen at approximately −70° C. until analysis.
PK analysis was performed on the individual plasma concentration-time profiles for MGBG using the WinNonlin non-compartmental approach (linear trapezoidal rule for AUC calculations). Nominal dose values and sampling times were used for calculations. All MGBG plasma concentration measurements reported as BQL (<2.51 ng/mL) were set equal to zero for the purpose of analysis. Following IV and PO administration of MGBG, plasma PK disposition parameters were calculated using the WinNonlin default selection criteria for the selection of the Lambda Z.
Consequently, a model-dependent two-compartmental analysis was used to calculate bioavailability.

[4] = male, Sprague Dawley, iv, 1 mg/kg
[5] = male, Sprague Dawley, po, 10 mg/kg
[6] = oral gavage 10 mg/kg single dose

Q: What does the source list for `CC(/C=N/NC(=N)N)=N\NC(=N)N` [MGBG, 1,1′ [methylethanediylidene]dinitrilodiguanidine]?
A: EAE disease development / severity [1]: suppressed EAE comparably to 1 mpk fingolimod; also recorded: substantially reduced disease compared to that of the vehicle group; also recorded: efficacious at postponing disease onset and reducing EAE severity; Clobs [2, 4]: 13.4 mL/min/kg; VSSobs [2, 4]: 15.4 L/kg; Clobs [2, 5]: 3.18 mL/min/kg; Vd [2, 5]: 15.4 L/kg; time point through which MGBG levels were measurable in plasma [2, 5]: 12 h; Kp ([2]; male, Sprague Dawley, po, 10 mg/kg, greater exposure (AUCall) of liver tissue compared to plasma): 160; Kp ([2]; male, Sprague Dawley, po, 10 mg/kg, greater exposure (AUCall) of spleen tissue compared to plasma): 9.3; Kp ([2]; male, Sprague Dawley, po, 10 mg/kg, greater exposure (Cmax) of liver tissue compared to plasma): 120; Kp ([2]; male, Sprague Dawley, po, 10 mg/kg, greater exposure (Cmax) of spleen tissue compared to plasma): 4; clinical findings after dosing [2]: Abnormal clinical findings were not noted; Clobs ([3]; IV 1 mg/kg single bolus): 13.7 mL/min/kg; VSSobs ([3]; IV 1 mg/kg single bolus): 13.2 L/kg; Clobs [3, 6]: 6.63 mL/min/kg; Vd [3, 6]: 13.2 L/kg
